Bridge positions count the residues as written; N and C are the ends. Peptide text beside a SMILES is read from it. * marks the point of attachment. Benzoyl(4-F) = O=C(c1ccc(F)cc1)*
Experiments:
[1] = tested on: U87MG tumor bearing mice; assay: Dynamic microPET scan of U87MG tumor-bearing mouse; assay type: in vivo; details: 35 min p.i., ROI analysis of the heart
[2] = tested on: U87MG tumor bearing mice; assay: Static microPET imaging quantification; assay type: in vivo, mouse; details: quantification of microPET images
[3] = tested on: U87MG tumor bearing mice; assay: Biodistribution in nude mice bearing U87MG xenografts; assay type: in vivo, mouse; details: 330 μg c(RGDyK), 0.5 h p.i., P < 0.05
[4] = as above; assay type: in vivo, mouse; details: nude, mouse, iv, 740 KBq (20 uCi), total radioactivity, 0.5 h p.i., n = 3
[5] = biological target: integrin αvβ3 (Homo sapiens) (UniProt P06756); details: cited from earlier work
UniProt P06756, sequence (P06756 31-1048, chain 1 of 2): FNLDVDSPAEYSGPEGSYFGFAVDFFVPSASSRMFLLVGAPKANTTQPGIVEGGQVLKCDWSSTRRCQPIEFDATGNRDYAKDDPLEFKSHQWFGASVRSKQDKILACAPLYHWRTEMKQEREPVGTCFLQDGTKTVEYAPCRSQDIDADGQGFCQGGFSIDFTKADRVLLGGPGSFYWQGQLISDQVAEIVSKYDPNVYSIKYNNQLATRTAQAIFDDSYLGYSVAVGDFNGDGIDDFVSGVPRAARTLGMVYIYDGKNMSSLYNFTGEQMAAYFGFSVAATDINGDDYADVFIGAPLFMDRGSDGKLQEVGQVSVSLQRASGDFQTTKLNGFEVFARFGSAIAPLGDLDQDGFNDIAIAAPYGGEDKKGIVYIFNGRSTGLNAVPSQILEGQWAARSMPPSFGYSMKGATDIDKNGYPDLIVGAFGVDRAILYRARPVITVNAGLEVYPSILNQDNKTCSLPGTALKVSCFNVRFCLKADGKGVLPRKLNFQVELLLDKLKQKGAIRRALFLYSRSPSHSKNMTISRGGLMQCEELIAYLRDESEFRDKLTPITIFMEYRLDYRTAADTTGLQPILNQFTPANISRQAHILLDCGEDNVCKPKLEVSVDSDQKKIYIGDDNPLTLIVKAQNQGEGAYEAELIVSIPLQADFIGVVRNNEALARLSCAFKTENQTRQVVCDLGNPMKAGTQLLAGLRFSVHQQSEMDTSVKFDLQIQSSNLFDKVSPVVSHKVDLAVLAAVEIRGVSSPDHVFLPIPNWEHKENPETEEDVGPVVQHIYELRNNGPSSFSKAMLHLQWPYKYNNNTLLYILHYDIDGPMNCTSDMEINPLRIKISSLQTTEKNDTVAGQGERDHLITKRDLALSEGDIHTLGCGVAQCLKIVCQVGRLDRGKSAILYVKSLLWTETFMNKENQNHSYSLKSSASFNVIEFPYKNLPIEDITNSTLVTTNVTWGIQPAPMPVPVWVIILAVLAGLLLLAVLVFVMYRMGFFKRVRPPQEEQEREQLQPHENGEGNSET
UniProt P06756, sequence (P05106 27-788, chain 2 of 2, further chain): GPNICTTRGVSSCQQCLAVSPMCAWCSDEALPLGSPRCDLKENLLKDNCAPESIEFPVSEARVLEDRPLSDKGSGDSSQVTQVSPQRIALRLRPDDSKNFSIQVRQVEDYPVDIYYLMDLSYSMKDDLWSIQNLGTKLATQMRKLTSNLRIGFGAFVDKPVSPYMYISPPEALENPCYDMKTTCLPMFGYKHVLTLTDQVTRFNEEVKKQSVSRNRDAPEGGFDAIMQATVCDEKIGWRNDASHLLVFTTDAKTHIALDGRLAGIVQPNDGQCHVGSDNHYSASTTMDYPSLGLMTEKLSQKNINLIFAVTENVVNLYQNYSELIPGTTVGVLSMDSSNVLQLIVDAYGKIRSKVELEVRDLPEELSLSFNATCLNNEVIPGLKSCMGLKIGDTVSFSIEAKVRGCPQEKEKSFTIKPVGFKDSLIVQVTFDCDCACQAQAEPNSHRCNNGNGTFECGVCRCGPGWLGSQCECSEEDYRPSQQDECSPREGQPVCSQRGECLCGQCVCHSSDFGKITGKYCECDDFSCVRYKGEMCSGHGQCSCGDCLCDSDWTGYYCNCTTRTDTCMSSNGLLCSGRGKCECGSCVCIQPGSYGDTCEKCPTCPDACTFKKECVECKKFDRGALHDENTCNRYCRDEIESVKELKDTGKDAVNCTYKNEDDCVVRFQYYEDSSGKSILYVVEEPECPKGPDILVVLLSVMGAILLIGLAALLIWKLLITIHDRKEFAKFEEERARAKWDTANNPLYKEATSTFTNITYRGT

[6] = biological target: αvβ3 integrin; details: binding to αvβ3 integrin; cited from earlier work

CC(C)C[C@@H]1NC(=O)[C@@H]2CSSC[C@@H](C(=O)NCC(N)=O)NC(=O)[C@H](Cc3ccccc3)NC(=O)CNC(=O)[C@H](CC(N)=O)NC(=O)[C@@H]3CCCN3C(=O)CNC(=O)[C@@H]3CSSC[C@H](NC(=O)[C@H](CO)NC(=O)[C@H]([C@@H](C)O)NC(=O)[C@@H]4CCCN4C(=O)[C@H](C)NC(=O)[C@H](Cc4c[nH]c5ccccc45)NC(=O)[C@H](CC(=O)O)NC(=O)CNC(=O)[C@H](CCCNC(=N)N)NC(=O)CNC(=O)[C@H](CCC(N)=O)NC(=O)[C@@H]4CCCN4C(=O)[C@@H](NC(=O)CNC(=O)c4ccc(F)cc4)CSSC[C@H](NC(=O)CNC(=O)[C@H](C)NC1=O)C(=O)N[C@@H](C(C)C)C(=O)N3)C(=O)N[C@@H](CO)C(=O)N[C@@H](CCC(N)=O)C(=O)N[C@@H](CC(=O)O)C(=O)N[C@@H](CO)C(=O)N[C@@H](CC(=O)O)C(=O)N2 [^18F-FB-2.5D] ({Benzoyl(4-F)}-GCPQGRGDWAPTSCSQDSDCLAGCVCGPNGFCG-NH2; disulfide 2-24, 14-26, 20-32; C-terminus assumed)
radioactivity in blood relative to amount at 3 min p.i. [1]: approximately 9.2%
activity remaining in tumor at 1 h p.i. compared to 0.5 h [2]: 56%
inhibition of tumor uptake by co-injection of c(RGDyK) [3]: 70%
tissue uptake at 0.5 h ([4]; blood, blood radioactivity (biodistribution)): 1.32 ± 0.07 %ID/g
tissue uptake at 0.5 h ([4]; kidney, kidney uptake (biodistribution)): 4.24 ± 0.19 %ID/g
tissue uptake at 0.5 h ([4]; liver, liver uptake (biodistribution)): 1.38 ± 0.55 %ID/g

Echistatin (from UniProt P17347)
Kd [5]: 0.3 nM

echistatin
Kd [6]: ~0.3 nM
